Results from PubChem BioAssay (NCI).
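Dose response: 5 concentrations. Exposure: 48 h. Format: 96-well plates. Endpoint: linear interpolation; highest concentration if not reached. TGI: total growth inhibition.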

What was measured:
Test in all cases: DTP human tumour cell line panel, 48 h
U251 CNS = system: U251 CNS
OVCAR-3 ovarian = system: OVCAR-3 ovarian
MOLT-4 leukemia = system: MOLT-4 leukemia
HL-60(TB) leukemia = system: HL-60(TB) leukemia
CAKI-1 renal = system: CAKI-1 renal
SK-OV-3 ovarian = system: SK-OV-3 ovarian
HCT-116 colon = system: HCT-116 colon
SW-620 colon = system: SW-620 colon
SNB-19 CNS = system: SNB-19 CNS
MALME-3M melanoma = system: MALME-3M melanoma
SNB-75 CNS = system: SNB-75 CNS
ACHN renal = system: ACHN renal
K-562 leukemia = system: K-562 leukemia
UO-31 renal = system: UO-31 renal

SMILES | TGI (U251 CNS) [µM] | TGI (OVCAR-3 ovarian) [µM] | TGI (MOLT-4 leukemia) [µM] | TGI (HL-60(TB) leukemia) [µM] | TGI (CAKI-1 renal) [µM] | TGI (SK-OV-3 ovarian) [µM] | TGI (HCT-116 colon) [µM] | TGI (SW-620 colon) [µM] | TGI (SNB-19 CNS) [µM] | TGI (MALME-3M melanoma) [µM] | TGI (SNB-75 CNS) [µM] | TGI (ACHN renal) [µM] | TGI (K-562 leukemia) [µM] | TGI (UO-31 renal) [µM]
CCc1cccc(C(C)C)c1NC(=O)/C(=N\NC(N)=O)C(C(=O)OC)c1cnc2ccccc2n1 (stereo not drawn) | > 100 | 60.3 | > 100 | 79.6 | > 100 | > 100 | 86.6 | > 100 | > 100 | 76.4 | > 100 | > 100 | > 100 | > 100
Cc1nc2ccc(Cl)cc2c2c1CCN2c1ccc(F)cc1 | > 100 | > 100 | > 100 | 35.3 | > 100 | > 100 | > 100 | > 100 | > 100 | 82 | 9.13 | > 100 | > 100 | > 100
CC(=O)Nc1ccc(S(=O)(=O)c2nnc(NC(C)=O)s2)cc1 | > 100 | > 100 | > 100 | > 100 | > 100 | > 100 | > 100 | > 100 | > 100 | > 100 | > 100 | > 100 | > 100 | > 100
O=c1c2ccccc2n2c(-c3ccccc3O)nnc2n1-c1ccccc1 | > 100 | > 100 | > 100 | > 100 | > 100 | > 100 | > 100 | > 100 | > 100 | > 100 | > 100 | > 100 | > 100 | 5.72
COC(=O)C(Cc1nc2ccc(Cl)cc2[nH]c1=O)C(=O)C(=O)Nc1cc(C)ccc1C (stereo not drawn) | > 100 | > 100 | > 100 | > 100 | > 100 | > 100 | > 100 | > 100 | > 100 | > 100 | > 100 | > 100 | > 100 | > 100
Cc1cc(C)c2c(=O)n(CC(O)CN(Cc3ccccc3)CC(O)Cn3sc4nc(C)cc(C)c4c3=O)sc2n1 (stereo not drawn) | 30.6 | 29.8 | > 100 | > 100 | 33.4 | 73.6 | 31.5 | > 100 | 34.7 | 27.4 | 28.9 | 30.1 | > 100 | 31.6
O=C(NC(CS)C(=O)O)c1c2ccccc2nc2ccccc12 (stereo not drawn) | > 100 | > 100 | > 100 | > 100 | > 100 | > 100 | > 100 | > 100 | > 100 | 56.8 | > 100 | > 100 | > 100 | 43
NC1CCN(c2nc3ccccc3c3c2CCCC3)CC1 | 14.8 | 28.1 | 9.36 | 8.84 | 19.1 | 27.1 | 14.4 | 12.7 | 22.7 | 19.8 | 22.1 | 22.4 | 6.58 | 12.2
S=C(NCCc1ccccn1)N/N=C(\c1ccccc1)c1ccccn1 | > 100 | > 100 | > 78.6 | > 100 | > 58.8 | > 66.2 | > 100 | > 100 | > 100 | > 100 | > 78 | 17.9 | > 100 | 14.1
CCOC(=O)C1=C(C(=O)OCC)SC2(S1)C(C(=O)OCC)=C(C(=O)OCC)Sc1c2ssc1=O | 3.95 | 3.16 | 2.14 | 1.06 | 5.15 | 10.9 | 2.3 | 1.89 | 15.4 | 4.19 | 3.94 | 3.11 | 3.06 | 3.25
COc1cc(/C=N/NC(=O)c2c(Cl)c(Cl)c(Cl)c(Cl)c2-c2nc3ccc(C(=O)c4ccccc4)cc3[nH]2)ccc1O | > 100 | > 100 | 64.1 | 61.1 | > 100 | > 100 | > 100 | > 100 | > 100 | > 100 | > 100 | > 100 | > 100 | > 100
Cc1cc(N(CCC#N)CCC#N)ccc1/C=C1N=C(/C=C\c2ccccc2)N(NC(=O)CC(=O)Nc2ccccc2Cl)C\1=O | > 100 | > 100 | > 100 | > 100 | > 100 | > 100 | > 100 | > 100 | > 100 | > 100 | > 100 | > 100 | > 100 | > 100
